System: HT-1080 (ATCC, CCL-121) cells
Assay: HT-1080 cell viability assay with ferroptosis inducer RSL3 (Cell Titer-Glo)
Assay type: cell-based
Conditions: HT-1080 cells treated with RSL3; 3-fold, 10-point dilution, 1.1 μM highest concentration; Table 3; read-out: EC50 (nM), ferroptosis inhibitory activity
Procedure: Example 2. Determination of EC50 Values in HT-1080 Cell Viability Assay
HT-1080 (ATCC, CCL-121) cells (6000 in 100 μl) were seeded in 96-well plates (Corning) and cultured in a 37° C. incubator with a humidified atmosphere of 5% CO2 for overnight. Cells were then treated with ferroptosis inducer RSL3 (TargetMol) and a 3-fold, 10-point serial dilution series of compounds with 1.1 μM as the highest concentration, […]. Cell viability was assessed using the Cell Titer-Glo Kit (Promega). The luminescence intensity was measured with a microplate reader (Envision, PerkinElmer), and cell viability was calculated by normalizing the data to untreated controls. The EC50 values of the compounds (e.g., Compounds 1-659) were calculated in GraphPad Prism (GraphPad Software, Inc., San Diego, CA, USA). The curves were fitted using a non-linear regression model with a sigmoidal dose response.

Row | EC50 [nM] | SMILES
1 | 0.1 to 100 | Cc1cc(Nc2ccc3c(c2)OCC(=O)N3CCO)ccc1N1CC(C)OC(C)C1 (stereo not drawn) [Compound 461, 7-((4-(2,6-dimethylmorpholino)-3-methylphenyl)amino)-4-(2-hydroxyethyl)-2H-benzo[b][1,4]oxazin-3(4H)-one]

Same assay, conditions: Homo sapiens; HT-1080 cells treated with RSL3; 3-fold, 10-point dilution, 1.1 μM highest concentration; Table 2; read-out: EC50 (nM), ferroptosis inhibitory activity

Row | SMILES | EC50 [nM]
2 | CN1C(=O)COc2cc(Nc3ccc(N4CCC(C(F)(F)F)CC4)cc3)c(F)cc21 [Compound 156, 6-fluoro-4-methyl-7-((4-(4-(trifluoromethyl)piperidin-1-yl)phenyl)amino)-2H-benzo[b][1,4]oxazin-3(4H)-one] | 0.1 to 100
3 | CC1CCN(c2ccc(Nc3ccc4c(ccn4C)c3)cc2)CC1 [Compound 329, 1-methyl-N-(4-(4-methylpiperidin-1-yl)phenyl)-1H-indol-5-amine] | 0.1 to 100
4 | COC1(C(F)(F)F)CCN(c2ccc(Nc3ccc4c(c3)OCC(=O)N4C)cc2)CC1 [Compound 9, 7-((4-(4-methoxy-4-(trifluoromethyl)piperidin-1-yl)phenyl)amino)-4-methyl-2H-benzo[b][1,4]oxazin-3(4H)-one] | 0.1 to 100
5 | Cn1[nH]c2cc(Nc3ccc(N4CCC(C(F)(F)F)CC4)cc3)ccc2c1=O [Compound 191, 2-methyl-6-((4-(4-(trifluoromethyl)piperidin-1-yl)phenyl)amino)-1,2-dihydro-3H-indazol-3-one] | 0.1 to 100
6 | CCOc1ccc(Nc2ccc3c(c2)n(C)c(=O)n3C)cc1 [Compound 309, 5-((4-ethoxyphenyl)amino)-1,3-dimethyl-1,3-dihydro-2H-benzo[d]imidazol-2-one] | 0.1 to 100
7 | FC(F)(F)C1CCN(c2ccc(Nc3ccc4ccoc4c3)cc2)CC1 [Compound 351, N-(4-(4-(trifluoromethyl)piperidin-1-yl)phenyl)benzofuran-6-amine] | 0.1 to 100
8 | CC1CN(c2ccc(Nc3ccc4c(c3)OCC(=O)N4CCO)cc2)CC(C)O1 (stereo not drawn) [Compound 84, 7-((4-(2,6-dimethylmorpholino)phenyl)amino)-4-(2-hydroxyethyl)-2H-benzo[b][1,4]oxazin-3(4H)-one] | 0.1 to 100
9 | Cc1cc(Nc2ccc3c(c2)OCC(=O)N3C)cc(C)c1N1CCC(C(F)(F)F)CC1 [Compound 155, 7-((3,5-dimethyl-4-(4-(trifluoromethyl)piperidin-1-yl)phenyl)amino)-4-methyl-2H-benzo[b][1,4]oxazin-3(4H)-one] | 0.1 to 100
10 | Cc1cc(N2CC(C)OC(C)C2)ccc1Nc1ccc2c(c1)c(C(N)=O)cn2C (stereo not drawn) [Compound 444, 5-((4-(2,6-dimethylmorpholino)-2-methylphenyl)amino)-1-methyl-1H-indole-3-carboxamide] | 0.1 to 100
11 | Cc1cc(Nc2ccc3c(c2)OCC(=O)N3C)ccc1N1CCC(C(F)(F)F)CC1 [Compound 86, 4-methyl-7-((3-methyl-4-(4-(trifluoromethyl)piperidin-1-yl)phenyl)amino)-2H-benzo[b][1,4]oxazin-3(4H)-one] | 0.1 to 100
12 | CNCCCn1cc2cc(Nc3ccc(N4CCC(C(F)(F)F)CC4)cc3)ccc2n1 [Compound 415, 2-(3-(methylamino)propyl)-N-(4-(4-(trifluoromethyl)piperidin-1-yl)phenyl)-2H-indazol-5-amine] | 0.1 to 100
13 | CN1Cc2ccc(Nc3ccc(N4CCC(C(F)(F)F)CC4)c(F)c3)cc2C1=O [Compound 169, 6-((3-fluoro-4-(4-(trifluoromethyl)piperidin-1-yl)phenyl)amino)-2-methylisoindolin-1-one] | 0.1 to 100
14 | CC(C)(C)c1ccc(Nc2ccc3c(CCN)cc(=O)oc3c2)cc1 [Compound 121, 4-(2-aminoethyl)-7-((4-(tert-butyl)phenyl)amino)-2H-chromen-2-one] | 0.1 to 100
15 | c1ccc(Nc2ccc3c(c2)CCNC3)cc1 [Compound 104, N-phenyl-1,2,3,4-tetrahydroisoquinolin-6-amine] | 0.1 to 100
16 | NC(=O)NCCn1ncc2cc(Nc3ccc(N4CCC(C(F)(F)F)CC4)cc3)ccc21 [Compound 421, 1-(2-(5-((4-(4-(trifluoromethyl)piperidin-1-yl)phenyl)amino)-1H-indazol-1-yl)ethyl)urea] | 0.1 to 100
17 | COc1cc(Nc2ccc3c(c2)CN(C)C3=O)ccc1N1CCC(C(F)(F)F)CC1 [Compound 243, 5-((3-methoxy-4-(4-(trifluoromethyl)piperidin-1-yl)phenyl)amino)-2-methylisoindolin-1-one] | 0.1 to 100
18 | CN1Cc2cc(Nc3cccc(N(C)C)c3)ccc2C1=O [Compound 234, 5-((3-(dimethylamino)phenyl)amino)-2-methylisoindolin-1-one] | 0.1 to 100
19 | COCCOc1ccc(Nc2ccc3c(c2)n(C)c(=O)n3C)cc1 [Compound 318, 5-((4-(2-methoxyethoxy)phenyl)amino)-1,3-dimethyl-1,3-dihydro-2H-benzo[d] imidazol-2-one] | 0.1 to 100
20 | Cc1cc(N2CC(C)OC(C)C2)ccc1Nc1ccc2c(c1)ncn2C (stereo not drawn) [Compound 447, N-(4-(2,6-dimethylmorpholino)-2-methylphenyl)-1-methyl-1H-benzo[d]imidazol-5-amine] | 0.1 to 100
21 | CC1CCN(c2ccc(Nc3ccc4c(c3)oc(=O)n4C)cc2)CC1 [Compound 273, 3-methyl-6-((4-(4-methylpiperidin-1-yl)phenyl)amino) benzo[d]oxazol-2(3H)-one] | 0.1 to 100
22 | CN1Cc2ccc(Nc3ccc(N4CCC(F)(F)CC4)cc3)cc2C1=O [Compound 168, 6-((4-(4,4-difluoropiperidin-1-yl)phenyl)amino)-2-methylisoindolin-1-one] | 0.1 to 100

Other lines, results leading:

Row | EC50 [nM] | SMILES
23 | 0.1 to 100 | Cc1cc(Nc2ccc3c(c2)OCC(=O)N3)ccc1N1CC2CCC(C1)O2 [Compound 146, 7-((4-(8-oxa-3-azabicyclo[3.2.1]octan-3-yl)-3-methylphenyl)amino)-2H-benzo[b][1,4]oxazin-3(4H)-one]
24 | 0.1 to 100 | CC1CN(c2ccc(Nc3ccc4c(c3)OCC(=O)N4C)cc2F)CC(C)O1 (stereo not drawn) [Compound 73, 7-((4-(2,6-dimethylmorpholino)-3-fluorophenyl)amino)-4-methyl-2H-benzo[b][1,4]oxazin-3(4H)-one]
25 | 0.1 to 100 | Cc1cc(Nc2ccc3c(c2)OCC(=O)N3)cnc1N1CCC(C(F)(F)F)CC1 [Compound 150, 7-((5-methyl-6-(4-(trifluoromethyl)piperidin-1-yl)pyridin-3-yl)amino)-2H-benzo[b][1,4]oxazin-3(4H)-one]
26 | 0.1 to 100 | Cc1cc(N2CC(C)OC(C)C2)ccc1Nc1ccc2c(c1)C(C)(C)C(=O)N2C (stereo not drawn) [Compound 438, 5-((4-(2,6-dimethylmorpholino)-2-methylphenyl)amino)-1,3,3-trimethylindolin-2-one]

Same assay, conditions: Homo sapiens; HT-1080 cells treated with RSL3; 3-fold, 10-point dilution, 1.1 μM highest concentration; Table 3; read-out: EC50 (nM), ferroptosis inhibitory activity

Row | SMILES | EC50 [nM]
27 | Cc1cc(N2CCC(C(F)(F)F)CC2)ccc1Nc1ccc2c(c1)C(C)(C)C(=O)N2 [Compound 514, 3,3-dimethyl-5-((2-methyl-4-(4-(trifluoromethyl)piperidin-1-yl)phenyl)amino)indolin-2-one] | 0.1 to 100
28 | Cc1cc(N2CCC(C(F)(F)F)CC2)ccc1Nc1ccc2c(c1)OC(CO)C(=O)N2 (stereo not drawn) [Compound 602, 2-(hydroxymethyl)-7-((2-methyl-4-(4-(trifluoromethyl)piperidin-1-yl)phenyl)amino)-2H-benzo[b][1,4]oxazin-3(4H)-one] | 0.1 to 100
29 | Cc1cc(N2CCC(C(F)(F)F)CC2)ccc1Nc1ccc2c(c1)COC(=O)N2 [Compound 539, 6-((2-methyl-4-(4-(trifluoromethyl)piperidin-1-yl)phenyl)amino)-1,4-dihydro-2H-benzo[d][1,3]oxazin-2-one] | 0.1 to 100
30 | CC(C)(C)C(=O)NN1C(=O)COc2cc(Nc3ccc(N4CCC(C(F)(F)F)CC4)cc3)ccc21 [Compound 600, N-(3-oxo-7-((4-(4-(trifluoromethyl)piperidin-1-yl)phenyl)amino)-2,3-dihydro-4H-benzo[b][1,4]oxazin-4-yl)pivalamide] | 0.1 to 100

The next lines start with the values.

Row | EC50 [nM] | SMILES
31 | 0.1 to 100 | CC[C@@H]1CN(c2ccc(Nc3ccc4c(c3)OCC(=O)N4)c(C)n2)C[C@@H](C)O1 [Compound 471, 7-((6-((2R,6R)-2-ethyl-6-methylmorpholino)-2-methylpyridin-3-yl)amino)-2H-benzo[b][1,4]oxazin-3(4H)-one]
32 | 0.1 to 100 | CCC1CN(c2ccc(Nc3ccc4c(c3)ncn4C)c(C)n2)CCO1 (stereo not drawn) [Compound 603, N-[6-(2-ethylmorpholin-4-yl)-2-methylpyridin-3-yl]-1-methyl-1,3-benzodiazol-5-amine]
33 | 0.1 to 100 | Cc1cc(N2CC(OC(F)F)C2)ccc1Nc1ccc2c(c1)OCC(O)C(=O)N2 (stereo not drawn) [Compound 658, 8-[4-[3-(difluoromethoxy)azetidin-1-yl]-2-methyl-anilino]-3-hydroxy-3,5-dihydro-2H-1,5-benzoxazepin-4-one]
34 | 0.1 to 100 | Cc1cc(N2CCN(CC(F)(F)F)[C@@H](C)C2)ccc1Nc1ccc2c(c1)OCC(=O)N2 [Compound 580, (S)-7-((2-methyl-4-(3-methyl-4-(2,2,2-trifluoroethyl)piperazin-1-yl)phenyl)amino)-2H-benzo[b][1,4]oxazin-3(4H)-one]
35 | 0.1 to 100 | COC(C)(C)C1CCN(c2ccc(Nc3ccc4c(c3)OCC(=O)N4)c(C)c2)CC1 [Compound 559, 7-((4-(4-(2-methoxypropan-2-yl)piperidin-1-yl)-2-methylphenyl)amino)-2H-benzo[b][1,4]oxazin-3(4H)-one]
36 | 0.1 to 100 | Cc1cc(N2CC(F)(F)C2)ccc1Nc1ccc2c(c1)OCC(=O)N2 [Compound 576, 7-((4-(3,3-difluoroazetidin-1-yl)-2-methylphenyl)amino)-2H-benzo[b][1,4]oxazin-3(4H)-one]
